Reference: US7335668B2, “Pharmaceutical composition for therapy of interstitial cystitis” (priority 2001, dated 2008)

Experiments:
[1] = test system: capsaicin-sensitive sensory nerve; experiment: Plasma protein extravasation induced by capsaicin in the mouse bladder (Evans blue); format: in vivo; conditions: for reduction of capsaicin-induced increase in Evans blue dye content in the bladder: female Balb/c mice, 100 μL, about one hour before capsaicin 300 μg/kg i.v.; for intravesical concentration that inhibited extravascular leakage of plasma proteins (depressant action on capsaicin-sensitive sensory nerve): mouse bladder, infused intravesically
Experimental: In the experiment, four or five female Balb/c mice (Japan SLC, Inc.) per group were used. A catheter was inserted into the bladder of a mouse anesthetized with urethane (intraperitoneally administered with 0.15 ml of a 20% solution per mouse) via the urethra, and after emptying the bladder, a physiological saline or drug solution was injected. This catheter was prepared by blunting the tip of a 24-guage hypodermic needle and making a side hole at 2 mm from the newly prepared tip. About one hour after the instillation into the bladder, extravascular leakage of plasma proteins due to inflammatory reaction caused by stimulation of the capsaicin-sensitive sensory nerve according to the method of Maggi, et al. (Nauny-Schmiedeberg's Arch. Pharmacol., 336: pp.546-555(1987)). That is Evans blue (30 mg/kg) a dye bound by plasma proteins and capsaicin (300 μg/kg) were administered to the mouse from the tail vein, and precisely five minutes after the administration, the mouse was killed by cervical dislocation, then the bladder was removed. After removing urine and blood remaining in the tissue, the dye in the organs was quantitatively determined. Evans blue dye was extracted from the bladder by placing the tissue in 150 μL of formamide overnight, and was quantitatively determined by measuring light absorbance at a wavelength of 620 nm of 100 μL supernatant in a 96-well microplate. In addition, the content of Evans blue dye in one milligram of wet tissue was calculated. Moreover, the mouse intravesically instilled with physiological saline and intravenously administered with a capsaicin-free Evans blue solution served as a normal control. […] Capsaicin and formamide were purchased from Wako Pure Chemical Industries, Ltd., and Evans blue was purchased from Aldrich. […] Results were shown as [(mean values)±(standard errors of the mean)]. The Student's t-test was used to determine the significance of difference between the group of mice receiving […] saline and stimulated with capsaicin e and the group of normal control mice.

[2] = test system: rhythmic bladder contraction; conditions: as disclosed in International Patent Publication No. 96/20194; cited from earlier work

| SMILES | reduction of capsaicin-induced increase in Evans blue dye content in the bladder ([1]; injected intravesically at 1 μM) | reduction of capsaicin-induced increase in Evans blue dye content in the bladder ([1]; injected intravesically at 10 μM) | reduction of capsaicin-induced increase in Evans blue dye content in the bladder ([1]; injected intravesically at 100 μM) | intravesical concentration that inhibited extravascular leakage of plasma proteins (depressant action on capsaicin-sensitive sensory nerve) [1] | effect on rat rhythmic bladder contraction [2] |
| --- | --- | --- | --- | --- | --- |
| O=C(O[C@H]1CN2CCC1CC2)N1CCc2ccccc2[C@@H]1c1ccccc1 [Compound 1, (+)-(1S,3′R)-quinuclidin-3′-yl 1-phenyl-1,2,3,4-tetrahydroisoquinoline-2-carboxylate] | 52% | 76% | 80% | ≥ 1 µM |  |
| O=C(OC1CN2CCC1CC2)N1CCc2ccccc2C1c1ccccc1 (stereo not drawn) [Compound A, quinuclidin-3′-yl 1-phenyl-1,2,3,4-tetrahydroisoquinoline-2-carboxylate] |  |  |  | ≥ 1 µM | inhibitory effects on rat rhythmic bladder contraction |
